This is an account of results in publication PMC12543159, “Characterization and ligand binding properties of a fatty acid- and retinol- binding protein (Hp-FAR-2) from Heligmosomoides polygyrus” (PLOS Neglected Tropical Diseases, 2025).

As a reminder, the Kd is the constant that tells how readily two partners part at equilibrium.

Assay type in all cases: binding
In assay [1] the target is T1, Hp-FAR-2 (Heligmosomoides polygyrus, UniProt A0A183GLK6).
T1 construct: mature Hp-FAR-2, amino acids 18–180, N-terminal 6-His-tag
Kind of assay: DAUDA displacement fluorescence competition ([…] and […]).

Assay [2] concerns the target T1, Hp-FAR-2. Kind of assay: DAUDA displacement fluorescence competition ([…] excess, […]).
Assay [3] addresses T1, Hp-FAR-2. The assay can be described thus: fluorescence titration of DAUDA with purified Hp-FAR-2 (blue shift).
The target of assay [4] is T1, Hp-FAR-2. Kind of assay: retinol fluorescence titration with purified Hp-FAR-2.

T1 sequence (A0A183GLK6 entry or part of it): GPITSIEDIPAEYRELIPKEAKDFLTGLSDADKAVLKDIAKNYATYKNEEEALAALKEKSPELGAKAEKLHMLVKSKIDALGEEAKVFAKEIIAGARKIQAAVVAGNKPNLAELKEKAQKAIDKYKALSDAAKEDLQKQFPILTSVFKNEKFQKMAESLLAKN

Consider `CC/C=C\C/C=C\C/C=C\C/C=C\C/C=C\C/C=C\CCC(=O)O` [DHA, docosahexaenoic acid], for which, on Hp-FAR-2 [1], the “DAUDA displacement fluorescence competition (1:1 and 1:10)” value is “Oleic acid, linoleic acid, and docosahexaenoic acid all significantly displaced DAUDA”. For the molecule `CC/C=C\C/C=C\C/C=C\C/C=C\C/C=C\CCCC(=O)O` [EPA, eicosapentaenoic acid], the “DAUDA displacement fluorescence competition (10-fold excess, 10 μM)” value on Hp-FAR-2 [2] is given as “All fatty acids except α-linolenic acid significantly displaced DAUDA compared to DAUDA alone”. For `CN(C)c1cccc2c(S(=O)(=O)NCCCCCCCCCCC(=O)O)cccc12` [DAUDA], the Kd at Hp-FAR-2 [3] worked out at 3.16 µM. Take `CCCCC/C=C\C/C=C\CCCCCCCC(=O)O` [LA, linoleic acid]: at Hp-FAR-2 [1], the “DAUDA displacement fluorescence competition (1:1 and 1:10)” value was “Oleic acid, linoleic acid, and docosahexaenoic acid all significantly displaced DAUDA”. On Hp-FAR-2 [4], `CC1=C(/C=C/C(C)=C/C=C/C(C)=C/CO)C(C)(C)CCC1` [retinol] had a Kd of 3.24 µM. As for `CCCCC/C=C\C/C=C\C/C=C\C/C=C\CCCC(=O)O` [AA, arachidonic acid], the “DAUDA displacement fluorescence competition (10-fold excess, 10 μM)” value on Hp-FAR-2 [2] is reported as “All fatty acids except α-linolenic acid significantly displaced DAUDA compared to DAUDA alone”. Consider `CCCCCCCC/C=C\CCCCCCCC(=O)O` [OA, oleic acid], for which the “DAUDA displacement fluorescence competition (1:1 and 1:10)” value on Hp-FAR-2 [1] was “Oleic acid, linoleic acid, and docosahexaenoic acid all significantly displaced DAUDA”. Turning to `CCCCCCCCCCCCCCCC(=O)O` [PA, palmitic acid], the “DAUDA displacement fluorescence competition (10-fold excess, 10 μM)” value on Hp-FAR-2 [2] is “All fatty acids except α-linolenic acid significantly displaced DAUDA compared to DAUDA alone”.
